# Reference: US20240400555A1 (Initial Therapeutics, Inc., priority 2023, published 2024)
# System: MV-4-11 cells
# Assay: Cell Viability Assay in MV-4-11 Cells
# Format: cell-based
# Details: Homo sapiens, MV4-11, 72 h, MV-4-11 cells, 72 h, Cell-Titer Glo; read-out: IC50
# Summary of the method: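 MV-4-11 cells at 7,000/well in IMDM with 10% FBS, exposed to compound for 72 h. Viability by CellTiter-Glo luminescence, normalized to DMSO as 100%, fitted with a four-parameter curve.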
row,IC50 [µM],Structure (SMILES)
1,0.057,"Cc1cc(Cl)cc2ccnc(N(C(=O)c3ccc(-c4cn(C)nn4)nc3)[C@@H]3CCCNC3)c12 [Example 884, N-(6-chloro-8-methyl-1-isoquinolyl)-6-(1-methyltriazol-4-yl)-N-[(3R)-3-piperidyl]pyridine-3-carboxamide]"
2,0.34,"Cn1cc(-c2ccc(C(=O)N(c3nccc4cc(-c5ccccn5)ccc34)[C@@H]3CCCNC3)c(F)c2)nn1 [Example 581, (R)-2-fluoro-4-(1-methyl-1H-1,2,3-triazol-4-yl)-N-(piperidin-3-yl)-N-(6-(pyridin-2-yl)isoquinolin-1-yl)benzamide]"
3,0.053,"CCn1cc(-c2ccc(C(=O)N(c3nccc4cc(F)cc(C)c34)[C@@H]3CCCNC3)c(F)c2)nn1 [Example 712, 4-(1-ethyltriazol-4-yl)-2-fluoro-N-(6-fluoro-8-methyl-1-isoquinolyl)-N-[(3R)-3-piperidyl]benzamide]"
4,0.18,"Cn1cc(-c2ccc(C(=O)N(c3nccc4cc(F)ccc34)[C@@H]3CCCNC3)c(F)c2)nn1 [Example 469, (R)-2-fluoro-N-(6-fluoroisoquinolin-1-yl)-4-(1-methyl-1H-1,2,3-triazol-4-yl)-N-(piperidin-3-yl)benzamide]"
5,0.047,"Cc1cccc2ccnc(N(C(=O)c3ccc(Nc4nccc(N5CCOCC5c5cccnc5)n4)cc3F)[C@@H]3CCCNC3)c12 (stereo partly drawn) [Example 958, 2-fluoro-N-(8-methylisoquinolin-1-yl)-N—((R)-piperidin-3-yl)-4-((4-(3-(pyridin-3-yl)morpholino)pyrimidin-2-yl)amino)benzamide]"
6,0.13,"COCCc1nnc(-c2ccc(C(=O)N(c3nccc4scc(C)c34)[C@@H]3CCCNC3)cn2)s1 [Example 913, 6-[5-(2-methoxyethyl)-1,3,4-thiadiazol-2-yl]-N-(3-methylthieno[3,2-c]pyridin-4-yl)-N-[(3R)-3-piperidyl]pyridine-3-carboxamide]"
7,0.72,"CCc1cc(-c2cc3c(N(C(=O)c4ccc(-n5nnc6cccnc65)cc4F)[C@@H]4CCCNC4)nccc3s2)ccn1 [Example 461, N-[2-(2-ethyl-4-pyridyl)thieno[3,2-c]pyridin-4-yl]-2-fluoro-N-[(3R)-3-piperidyl]-4-(triazolo[4,5-b]pyridin-3-yl)benzamide]"
8,0.053,"Cc1cc(Cl)cc2ccnc(N(C(=O)c3ccc(-c4nnn(C)c4CO)cc3F)[C@@H]3CCCNC3)c12 [Example 618, (R)—N-(6-chloro-8-methylisoquinolin-1-yl)-2-fluoro-4-(5-(hydroxymethyl)-1-methyl-1H-1,2,3-triazol-4-yl)-N-(piperidin-3-yl)benzamide]"
9,0.25,"O=C(c1ccc(-n2nnc3cccnc32)cc1F)N(c1nccc2ccc(/C=C\CO)cc12)[C@@H]1CCCNC1 [Example 337, (R,Z)-4-(3H-[1,2,3]triazolo[4,5-b]pyridin-3-yl)-2-fluoro-N-(7-(3-hydroxyprop-1-en-1-yl)isoquinolin-1-yl)-N-(piperidin-3-yl)benzamide]"
10,0.23,"Nc1c(F)cc(-c2cc3c(N(C(=O)c4ccc(-n5nnc6cccnc65)cc4F)[C@@H]4CCCNC4)nccc3s2)cc1F [Example 565, N-[2-(4-amino-3,5-difluoro-phenyl)thieno[3,2-c]pyridin-4-yl]-2-fluoro-N-[(3R)-3-piperidyl]-4-(triazolo[4,5-b]pyridin-3-yl)benzamide]"
11,0.11,"Cc1cn(-c2ccc(C(=O)N(c3nccc4cc(Cl)cc(C)c34)[C@@H]3CCCNC3)c(F)c2)nn1 [Example 691, (R)—N-(6-chloro-8-methylisoquinolin-1-yl)-2-fluoro-4-(4-methyl-1H-1,2,3-triazol-1-yl)-N-(piperidin-3-yl)benzamide]"
12,0.82,"Cn1cc(-c2ccc(C(=O)N(c3nccc4cc(F)ccc34)[C@@H]3CCCNC3)cc2)nn1 [Example 805, (R)—N-(6-fluoroisoquinolin-1-yl)-4-(1-methyl-1H-1,2,3-triazol-4-yl)-N-(piperidin-3-yl)benzamide]"
13,0.25,"Cc1cccc2ccnc(N(C(=O)c3ccc(Nc4nccc(N(C)CCC#N)n4)cc3F)[C@@H]3CCCNC3)c12 [Example 949, (R)-4-((4-((2-cyanoethyl)(methyl)amino)pyrimidin-2-yl)amino)-2-fluoro-N-(8-methylisoquinolin-1-yl)-N-(piperidin-3-yl)benzamide]"
14,0.11,"CCn1cc(-c2ccc(C(=O)N(c3nccc4scc(C)c34)[C@@H]3CCCNC3)cn2)nn1 [Example 885, 6-(1-ethyltriazol-4-yl)-N-(3-methylthieno[3,2-c]pyridin-4-yl)-N-[(3R)-3-piperidyl]pyridine-3-carboxamide]"
15,0.21,"Cc1nnc(-c2ccc(C(=O)N(c3nccc4cc(F)cc(C)c34)C3CCCNC3)cc2)s1 (stereo not shown) [Example 725, N-(6-fluoro-8-methyl-1-isoquinolyl)-4-(5-methyl-1,3,4-thiadiazol-2-yl)-N-(3-piperidyl)benzamide]"
16,0.024,"Cc1cccc2ccnc(N(C(=O)c3ccc(Nc4nccc(N5CCC(C)(O)CC5)n4)cc3F)[C@@H]3CCCNC3)c12 [Example 936, (R)-2-fluoro-4-(4-(4-hydroxy-4-methylpiperidin-1-yl)pyrimidin-2-ylamino)-N-(8-methylisoquinolin-1-yl)-N-(piperidin-3-yl)benzamide]"
17,0.091,"O=C(c1ccc(-n2nnc3cccnc32)cc1F)N(c1nccc2sc(-c3ccc4ncnn4c3)cc12)[C@@H]1CCCNC1 [Example 434, (R)-4-(3H-[1,2,3]triazolo[4,5-b]pyridin-3-yl)-N-(2-([1,2,4]triazolo[1,5-a]pyridin-6-yl)thieno[3,2-c]pyridin-4-yl)-2-fluoro-N-(piperidin-3-yl)benzamide]"
18,0.16,"Cc1cc(F)cc2ccnc(N(C(=O)c3ccc(-c4cnn5cccnc45)cc3F)[C@@H]3CCCNC3)c12 [Example 627, (R)-2-fluoro-N-(6-fluoro-8-methylisoquinolin-1-yl)-N-(piperidin-3-yl)-4-(pyrazolo[1,5-a]pyrimidin-3-yl)benzamide]"
19,0.092,"Cc1csc2ccnc(N(C(=O)c3ccc(-c4cc(Cl)cnn4)cc3F)[C@@H]3CCCNC3)c12 [Example 768, (R)-4-(5-chloropyridazin-3-yl)-2-fluoro-N-(3-methylthieno[3,2-c]pyridin-4-yl)-N-(piperidin-3-yl)benzamide]"
20,0.045,"Cc1cccc2ccnc(N(C(=O)c3ccc(Nc4ncnc(N5CCCCC5)n4)cc3F)[C@@H]3CCCNC3)c12 [Example 969, 2-fluoro-N-(8-methylisoquinolin-1-yl)-4-{[4-(piperidin-1-yl)-1,3,5-triazin-2-yl]amino}-N-[(3R)-piperidin-3-yl]benzamide]"
21,0.39,"CN(C)c1nccc(-c2cc3c(N(C(=O)c4ccc(-n5nnc6cccnc65)cc4F)[C@@H]4CCCNC4)nccc3s2)n1 [Example 458, N-[2-[2-(dimethylamino)pyrimidin-4-yl]thieno[3,2-c]pyridin-4-yl]-2-fluoro-N-[(3R)-3-piperidyl]-4-(triazolo[4,5-b]pyridin-3-yl)benzamide]"
22,0.72,"Cc1noc(-c2ccc(C(=O)N(c3nccc4scc(C)c34)[C@@H]3CCCNC3)c(C)c2)n1 [Example 777, (R)-2-methyl-4-(3-methyl-1,2,4-oxadiazol-5-yl)-N-(3-methylthieno[3,2-c]pyridin-4-yl)-N-(piperidin-3-yl)benzamide]"
